Experiments:
Assay type in all cases: binding, BALB/c mice
[1] = test system: anti-carbaryl monoclonal antibody; assay: competitive FPIA carbaryl standard curve in borate buffer solution; conditions: 10% methanol, 10 min
Method: Step 2: First, the working concentration of each fluorescent marker was set to a corresponding fluorescent marker concentration (5 nM) when the fluorescence intensity was 10 times of the background fluorescence intensity of the BB solution (borate buffer solution). With a corresponding antibody dilution factor when 70% of the anti-carbaryl monoclonal antibody binds to the fluorescent marker (1 μg/mL), the carbaryl detection standard curve of different markers was established and the IC50 was calculated. The optimum fluorescent marker was decided based on the IC50 value of each standard curve. […]
9 concentration gradients of carbaryl standards of 100 μg/mL, 10 μg/mL, 1 μg/mL, 0.5 μg/mL, 0.1 μg/mL, 0.05 μg/mL, 0.01 μg/mL, 0.005 μg/mL and 0.001 μg/mL were formulated with 10% methanol in a borate buffer solution, and each 50 μL of the carbaryl standards, 500 μL fluorescent marker of working concentration (5 nM), and 500 μL anti-carbaryl monoclonal antibody of the working concentration (1 μg/mL) were added to a reaction tube, and incubated at room temperature in the dark for 10 min. Then the fluorescence polarization value was measured at an excitation wavelength of 485 nm and an emission wavelength of 530 nm, with a cutoff of 515 nm. […]

[2] = test system: anti-carbaryl monoclonal antibody; assay: competitive FPIA carbaryl standard curve in strawberry sample matrix; conditions: 25° C., 5 min
Method: Step 1: 20.0 g of the blank strawberry sample (which was determined to be carbaryl free by LC) was weighed and added to 20.0 mL acetonitrile, homogenized for 2 min at a high speed, filtered into a 50 mL centrifuge tube containing 4 g of sodium chloride, shaken vigorously for 3 min, and centrifuged at 5000 g for 2 min. 10 mL of the supernatant extract was aspirated to a beaker, heated in a water bath at 80° C., and evaporated to almost dryness while nitrogen was introduced into the beaker. 10 mL of methanol was added to dissolve the sample residue, to obtain a sample matrix solution. 9 concentration gradients of carbaryl standards of 100 μg/mL, 10 μg/mL, 1μg/mL, 0.5 μg/mL, 0.1 μg/mL, 0.05 μg/mL, 0.01 μg/mL, 0.005 μg/mL and 0.001 μg/mL were formulated with the sample matrix solution. Each 50 μL of the carbaryl standard solution in the sample matrix solution, 500 μL fluorescent marker solution and 500 μL anti-carbaryl monoclonal antibody solution were added and incubated at 25° C. for 5 min. Then FPIA detection was conducted. According to the correlation between the fluorescence polarization signal and the concentration of the carbaryl standard, a standard curve for carbaryl detection in the strawberry sample was obtained, as shown in FIG. 2. The detection sensitivity of carbaryl in the strawberry matrix is 108.6 μg/kg and the detection range is 32.4-363.6 μg/kg. […]

[3] = test system: anti-carbaryl monoclonal antibody secreted by the hybridoma cell line Jnw1D2; assay: indirect competitive ELISA characterisation of the anti-carbaryl monoclonal antibody (IC50, cross reaction); conditions: with anti-carbaryl monoclonal antibody
From the text: 2-3 weeks after cell fusion, when the cell colonies grew up to be visually visible, the clones were picked out from the culture medium with a micropipette, transferred to a 96-well cell culture plate and cultured in HAT liquid. When the cells grew to cover ⅔ of the bottom of the well, the culture supernatant was aspirated for testing. A two-step screening method was adopted. In the first step, indirect ELISA method was used to screen out the positive wells against carbaryl, but not the carrier protein BSA. In the second step, indirect competitive ELISA method was used for testing the positive wells screened out in the first step with carbaryl as a competitor. Wells with high absorbance and sensitivity were chosen (where the high absorbance means a high final value determined in the well where the competitor is 0, i.e., the positive control well, and the high sensitivity means a low concentration, i.e. the IC50, of the competitor achieving 50% inhibition). The cells were subcloned by limiting dilution analysis, and then detected by the two-step method as described above. After 4-5 rounds of repeated subcloning, a hybridoma cell line Jnw1D2 was obtained, which was deposited in China Center for Type Culture Collection (CCTCC) (Wuhan University, Wuhan, China) under the CCTCC Accession No: C201654.
The subtype of the anti-carbaryl monoclonal antibody secreted by the hybridoma cell line Jnw1D2 was identified as IgG2b by using a commercial subtype identification kit. The titer of the antibody was 1.6×10^4 measured by enzyme-linked immunosorbent assay (ELISA).

For `CNC(=O)Oc1cccc2ccccc12` [carbaryl], the “sensitivity of the standard curve” value [1] was 82.3 ng/mL and the detection sensitivity [2] was 108.6 µg/kg.
With `CNC(=O)Oc1cccc2c1OC(C)(C)C2` [carbofuran] the cross reaction [3] was “no cross reaction”.
For `CNC(=O)ON=C(C)SC` [methomyl], the cross reaction [3] was “no cross reaction”.
For `CNC(=O)O/N=C/C(C)(C)SC` [aldicarb], the cross reaction [3] was “no cross reaction”.
